Measured values as given in patent publication US6706740B2, “Fungicidal heterocyclic aromatic amides and their compositions, methods of use and preparation” (Dow AgroSciences LLC, priority 1999, dated 2004).
Where two headings read alike, the source gives them in different places.

Assays:
[1] = test system: Erysiphe graminis—ERYSGT; test: Powdery Mildew of Wheat, in vivo whole plant, 24 Hour Protectant; details: for pest or weed control at 100 ppm: Erysiphe, read-out: ERYSGT in vivo 1 Day Protectant
[2] = test system: Stagonospora nodorum (Leptosphaeria nodorum—LEPTNO); test: In vitro fungal growth inhibition, Stagonospora nodorum (LEPTNO); type: cell-based; details: Leptosphaeria, read-out: LEPTNO in vitro Growth Inhibition
[3] = test system: Ustilago maydis (USTIMA); test: microbe, parasite or virus in culture; type: cell-based; details: Mycosarcoma maydis, read-out: USTIMA in vitro Growth Inhibition
[4] = test system: Mycosphaerella graminicola (Septoria tritici—SEPTTR); test: In vitro fungal growth inhibition, Mycosphaerella graminicola (SEPTTR); type: cell-based; details: Zymoseptoria tritici, read-out: SEPTTR in vitro Growth Inhibition
[5] = test system: Magnaporthe grisea (Pyricularia oryzae—PYRIOR); test: microbe, parasite or virus in culture; type: cell-based; details: Pyricularia oryzae, read-out: PYRIOR in vitro Growth Inhibition
[6] = test system: Phytophthora infestans (PHYTIN); test: microbe, parasite or virus in culture; type: cell-based; details: Phytophthora infestans, read-out: PHYTIN in vitro Growth Inhibition
[7] = test system: Septoria tritici—SEPTTR; test: Leaf Blotch of Wheat, in vivo whole plant, 24 Hour Protectant; details: for pest or weed control at 100 ppm: Zymoseptoria tritici, 24 h, read-out: SEPTTR in vivo 1 Day Protectant
[8] = test system: Puccinia recondita—PUCCRT; test: Brown Rust of Wheat, in vivo whole plant, 24 Hour Protectant; details: for pest or weed control at 100 ppm: Puccinia, read-out: PUCCRT in vivo 1 Day Protectant
[9] = test system: Phytophthora infestans—PHYTIN; test: whole plant or invertebrate; type: in vivo; details: Phytophthora, in Solanum lycopersicum, 24 h, read-out: PHYTIN in vivo 1 Day Protectant
[10] = test system: Leptosphaeria nodorum—LEPTNO; test: Glume Blotch of Wheat, in vivo whole plant, 24 Hour Protectant; details: for pest or weed control at 100 ppm: Leptosphaeria, read-out: LEPTNO in vivo 1 Day Protectant
[11] = test system: Rhizoctonia solani (RHIZSO); test: microbe, parasite or virus in culture; type: cell-based; details: Rhizoctonia solani, read-out: RHIZSO in vitro Growth Inhibition
[12] = wheat plants sprayed at 100 ppm, inoculated after 24 hours, control of fungal infection vs untreated plants
[13] = 100 ppm spray, wheat, 24 hour protectant, % control of fungal infection vs untreated plants

SMILES | pest or weed control at 100 ppm [1, 12] [%] | inhibition at 25 ppm ([2]; 25 ppm in the growth medium) [%] | inhibition at 25 ppm [3] [%] | inhibition at 25 ppm ([4]; 25 ppm in the growth medium) [%] | inhibition at 25 ppm [5] [%] | inhibition at 25 ppm [6] [%] | pest or weed control at 100 ppm [7, 12] [%] | pest or weed control at 100 ppm [8, 12] [%] | pest or weed control at 100 ppm [9] [%] | pest or weed control at 100 ppm [10, 12] [%] | inhibition at 25 ppm [11] [%] | pest or weed control at 100 ppm [1, 13] [%] | inhibition at 25 ppm ([2]; 25 ppm in growth medium) [%] | inhibition at 25 ppm ([4]; 25 ppm in growth medium) [%] | PUCCRT in vivo 1 Day Protectant [8, 13] | LEPTNO in vivo 1 Day Protectant [10, 13] | SEPTTR in vivo 1 Day Protectant [7, 13] | other results
COC(=O)C(COC(=O)C(COC(=O)C(C)C)Cc1ccccc1)NC(=O)c1nccc(OC)c1OC(C)=O (stereo not drawn) [Compound 587] | < 25 | < 80 | < 80 | < 80 | < 80 | < 80 | 25 to 74 | 25 to 74 | < 25 | 25 to 74 | < 80 |  |  |  |  |  |  | 
COc1ccnc(C(=O)NC(COC(=O)C(C)Cc2ccccc2)C(=O)OC(C)C)c1OC(C)=O (stereo not drawn) [Compound 588] | < 25 | < 80 | < 80 | < 80 | < 80 | < 80 | < 25 |  | < 25 | 25 to 74 | < 80 |  |  |  |  |  |  | PUCCRT in vivo 1 Day Protectant [8, 12]: + +
COc1ccnc(C(=O)NC(COC(=O)C(Cc2ccccc2)C(C)OC(=O)C(C)C)C(=O)OC(C)C)c1OC(C)=O (stereo not drawn) [Compound 589] | < 25 | < 80 | < 80 | < 80 | < 80 | < 80 | 25 to 74 | 25 to 74 | < 25 | < 25 | < 80 |  |  |  |  |  |  | 
COc1ccnc(C(=O)NC(COC(=O)CCc2ccccc2)C(=O)OC(C)COC(=O)C(C)C)c1OC(C)=O (stereo not drawn) [Compound 590] | < 25 | < 80 | < 80 | < 80 | < 80 | < 80 | 25 to 74 | 25 to 74 | < 25 | 25 to 74 | < 80 |  |  |  |  |  |  | 
COc1ccnc(C(=O)N[C@@H]2O[C@H](COC(C)=O)[C@H](OC(C)=O)[C@H](OC(C)=O)[C@H]2OC(C)=O)c1OC(C)=O [Compound 591] | < 25 | < 80 | < 80 | < 80 | < 80 | < 80 | 25 to 74 | < 25 | < 25 | 25 to 74 | < 80 |  |  |  |  |  |  | 
COc1ccnc(C(=O)N[C@@H]2OC[C@@H](OCc3ccccc3)[C@H](OCc3ccccc3)[C@H]2OCc2ccccc2)c1OC(C)=O [Compound 592] | < 25 | < 80 | < 80 | < 80 | < 80 | < 80 | 25 to 74 | < 25 | < 25 | 25 to 74 | < 80 |  |  |  |  |  |  | 
COc1ccnc(C(=O)N[C@H]2CO[C@H](C(C)Cc3ccc(C(C)(C)C)cc3)OC2)c1OC(C)=O (stereo partly drawn) [Compound 594] | < 25 | > 80 | < 80 | > 80 | > 80 | < 80 | 25 to 74 |  | < 25 | 25 to 74 | > 80 |  |  |  |  |  |  | PUCCRT in vivo 1 Day Protectant [8, 12]: + +
COc1ccnc(C(=O)N[C@H]2COC(=O)[C@H](Cc3ccccc3)[C@@H](OC(C)=O)[C@H](C)OC2=O)c1OC(C)=O [Compound 596] |  |  | < 80 |  | > 80 | > 80 |  |  | < 25 |  | < 80 | < 25 | < 80 | < 80 | + + | + + |  | pest or weed control at 100 ppm [7, 13]: 25 to 74%
C/C=C/C(=O)Oc1c(OC)ccnc1C(=O)N[C@H]1COC(=O)[C@H](Cc2ccccc2)[C@@H](OC(=O)C(C)C)[C@H](C)OC1=O [Compound 600] |  |  | < 80 |  | > 80 | < 80 |  |  | < 25 |  | < 80 | < 25 | > 80 | < 80 | + + | + + | + + | 
COc1ccnc(C(=O)N[C@H]2COC(=O)[C@H](Cc3ccccc3)[C@@H](OC(=O)C(C)C)[C@H](C)OC2=O)c1OC(=O)C(C)(C)C [Compound 605] |  |  | < 80 |  | < 80 | < 80 |  |  | < 25 |  | < 80 | < 25 | < 80 | < 80 | + + | + + | + + | 
COc1ccnc(C(=O)N[C@H]2COC(=O)[C@H](Cc3ccccc3)[C@@H](OC(=O)C(C)C)[C@H](C)OC2=O)c1OC(=O)C=C(C)C [Compound 607] |  |  | < 80 |  | < 80 | < 80 |  |  | < 25 |  | < 80 | < 25 | > 80 | < 80 | + + |  | + + | pest or weed control at 100 ppm [10, 13]: 25 to 74%
COc1ccnc(C(=O)N[C@H]2COC(=O)[C@H](Cc3ccccc3)[C@@H](OC(=O)C(C)C)[C@H](C)OC2=O)c1OC(=O)C1CCCC1 [Compound 611] |  |  | < 80 |  | < 80 | < 80 |  |  | < 25 |  | < 80 | < 25 | < 80 | < 80 | + + | + + | + + | 
COc1ccnc(C(=O)N[C@H]2COC(=O)[C@H](Cc3ccccc3)[C@@H](OC(=O)C(C)C)[C@H](C)OC2=O)c1OC(=O)C1CCCCC1 [Compound 612] |  |  | < 80 |  | < 80 | < 80 |  |  | < 25 |  | < 80 | < 25 | > 80 | < 80 | + + | + + | + + | 
CCCCCCC(=O)Oc1c(OC)ccnc1C(=O)N[C@H]1COC(=O)[C@H](Cc2ccccc2)[C@@H](OC(=O)C(C)C)[C@H](C)OC1=O [Compound 613] |  |  | < 80 |  | < 80 | > 80 |  |  | 25 to 74 |  | < 80 |  | < 80 | < 80 | + + |  | + + | ERYSGT in vivo 1 Day Protectant [1, 13]: + +; pest or weed control at 100 ppm [10, 13]: 25 to 74%
COc1ccnc(C(=O)N[C@H]2COC(=O)[C@H](Cc3ccccc3)[C@@H](OC(=O)C(C)C)[C@H](C)OC2=O)c1OC(=O)CCCBr [Compound 625] |  |  | < 80 |  | < 80 | < 80 |  |  | < 25 |  | < 80 | < 25 | > 80 | < 80 | + + | + + | + + | 
